Experimental data published in US20020165236A1, “Compounds for the treatment of protozoal diseases” (priority 2001, published 2002).

Tested on: multiresistant Dd2 strain of Plasmodium falciparum
Test: antiplasmodial action, [8-3H]hypoxanthine incorporation, Dd2 strain
Assay type: cell-based
Conditions: read-out: in vitro antiplasmodial activity (IC50 value class)
Procedure: For the determination of the antiplasmodial action of the compounds, the multiresistant Dd2 strain of Plasmodium falciparum was used. The incorporation of [8-^3H]hypoxanthine into the parasitic nucleic acids was measured. The plasmodia were incubated at 0.3% parasitaemia and an erythrocyte haematocrit of 2.5% in the presence of different concentrations of the compounds in a final volume of 200-μl. The medium employed was RPMI 1640 which contained 10% of heat-treated human serum and 3 mg/l of gentamycin. in the incubations, the concentrations of the compounds varied from 0.3 to 100 μM. After 48 h, each batch was treated with 50 µl of […] (1 mCi/ml) and incubated for a further 18 h. The cells were filtered off, washed and suspended in 20 μl of scintillation fluid. The radioactive hypoxanthine absorbed by the parasites was then quantified using a scintillation counter.
The results were presented graphically and the IC50 value was determined using a fitting function. The value IC50, the ‘inhibition constant’, indicates the value in μMol/1 at which 50% inhibition occurs.

Row | SMILES | IC50
1 | N=C(N)c1cccc(NC(=O)Nc2ccccc2Br)c1 [Compound 3] | 1000 to 10000 nM
2 | N=C(N)c1cccc(NC(=O)Nc2ccc(S(=O)(=O)NC(c3ccccc3)c3ccccc3)cc2)c1 [Compound 23, 3-{3-[4-(benzhydrylsulfamoyl)-phenyl]-ureido}-benzamidine] | < 1000 nM
3 | N=C(N)c1cccc(NC(=O)Nc2ccc(S(=O)(=O)c3ccc(NCCO)cc3)cc2)c1 [Compound 65] | 1000 to 10000 nM
4 | COc1ccc(C(=O)Nc2cccc(NC(=O)Nc3cccc(C(=N)N)c3)c2)cc1 [Compound 69] | < 1000 nM
5 | N=C(N)c1cccc(NC(=S)Nc2ccc(S(=O)(=O)c3ccc(NCCO)cc3)cc2)c1 [Compound 77] | 1000 to 10000 nM
6 | N=C(N)c1cccc(NC(=O)Nc2ccc(S(=O)(=O)NCc3ccc(F)cc3F)cc2)c1 [Compound 43] | 1000 to 10000 nM
7 | CC(=O)Nc1cccc(NC(=O)Nc2cccc(C(=N)N)c2)c1 [Compound 66] | 1000 to 10000 nM
8 | CCN(CC)C(=O)c1cccc(NC(=S)Nc2cccc(C(=N)N)c2)c1 [Compound 80] | < 1000 nM
9 | CCCCNS(=O)(=O)c1ccc(NC(=O)Nc2cccc(C(=N)N)c2)cc1 [Compound 21] | 1000 to 10000 nM
10 | N=C(N)c1ccc(NC(=O)Nc2ccc(S(=O)(=O)NCc3ccc(F)cc3F)cc2)cc1 [Compound 55] | < 1000 nM
11 | N=C(N)c1cccc(NC(=O)Nc2ccc(S(=O)(=O)NCc3ccc(F)c(F)c3)cc2)c1 [Compound 44] | 1000 to 10000 nM
12 | CC(NS(=O)(=O)c1ccc(NC(=O)Nc2cccc(C(=N)N)c2)cc1)c1ccc(F)cc1 (centres unmarked) [Compound 48] | 1000 to 10000 nM
13 | N=C(N)c1cccc(NC(=O)Nc2ccc(S(=O)(=O)NCc3cccc(C(F)(F)F)c3)cc2)c1 [Compound 37, 3-{3-[4-(3-trifluoromethyl-benzylsulfamoyl)-phenyl]-ureido}-benzamidine] | < 1000 nM
14 | N=C(NCCN1CCCC1)c1cccc(NC(=O)Nc2ccc(S(=O)(=O)c3ccc([N+](=O)[O-])cc3)cc2)c1 [Compound 83] | 1000 to 10000 nM
15 | N=C(N)c1cccc(NC(=O)C(=O)Nc2cccc(S(=O)(=O)NCc3ccccc3)c2)c1 [Compound 102, N-(3-benzylsulfamoylphenyl)-N′-(3-carbamimidoyl-phenyl)-oxalamide] | 10000 to 100000 nM
16 | N=C(N)c1cccc(NC(=O)Nc2ccc(S(=O)(=O)Nc3ccccc3)cc2)c1 [Compound 26] | 1000 to 10000 nM

Row | SMILES | IC50
17 | N=C(N)c1cccc(NC(=O)Nc2ccc(S(=O)(=O)NCc3ccc([N+](=O)[O-])cc3)cc2)c1 [Compound 59] | < 1000 nM
18 | N=C(N)c1cccc(NC(=O)Nc2ccc(S(=O)(=O)NCc3c(F)cccc3F)cc2)c1 [Compound 45] | < 1000 nM
19 | N=C(N)c1cccc(NC(=O)Nc2ccc(S(N)(=O)=O)cc2[N+](=O)[O-])c1 [Compound 28] | 1000 to 10000 nM
20 | N=C(N)c1cccc(NC(=O)Nc2ccc(S(=O)(=O)NCc3ccc(S(N)(=O)=O)cc3)cc2)c1 [Compound 35, 3-{3-[4-(4-sulfamoyl-benzylsulfamoyl)-phenyl]-ureido}-benzamidine] | < 1000 nM
21 | N=C(N)c1cccc(NC(=O)Nc2ccc(S(=O)(=O)NCc3cc(F)ccc3F)cc2)c1 [Compound 42] | < 1000 nM
22 | N=C(N)c1cccc(NC(=O)Nc2ccc(S(=O)(=O)N3CCc4ccccc4C3)cc2)c1 [Compound 20] | 1000 to 10000 nM
23 | N=C(NO)c1cccc(NC(=O)Nc2ccc(S(=O)(=O)NCc3ccc(S(N)(=O)=O)cc3)cc2)c1 [Compound 96] | 1000 to 10000 nM
24 | N=C(N)c1cccc(NC(=O)Nc2ccc(S(=O)(=O)Nc3ccc4cccnc4c3)cc2)c1 [Compound 29] | 1000 to 10000 nM
25 | CN(C)CCNC(=N)c1cccc(NC(=O)Nc2ccc(S(=O)(=O)c3ccc([N+](=O)[O-])cc3)cc2)c1 [Compound 81] | 1000 to 10000 nM
26 | N=C(N)c1cccc(NC(=O)Nc2ccc(S(=O)(=O)Nc3ccc(-c4ccc(N)cc4[N+](=O)[O-])cc3)cc2)c1 [Compound 27] | 1000 to 10000 nM
27 | N=C(N)c1cccc(NC(=S)Nc2ccc(S(=O)(=O)NCc3ccc(C(F)(F)F)cc3)cc2)c1 [Compound 74] | < 1000 nM
28 | N=C(N)c1cccc(NC(=O)Nc2ccc(C(=O)NCc3ccc(S(N)(=O)=O)cc3)cc2)c1 [Compound 73, 4-[3-(3-carbamimidoylphenyl)-ureido]-N-(4-sulfamoylbenzyl)-benzamide] | 1000 to 10000 nM
29 | Cc1cc(-c2onc(C)c2C(=O)Nc2ccc(NC(=O)Nc3cccc(C(=N)N)c3)cc2)no1 [Compound 71] | 1000 to 10000 nM
30 | COC(=O)c1cc(NC(=O)Nc2cccc(C(=N)NCCN3CCCC3)c2)cc(C(F)(F)F)c1 [Compound 88] | 1000 to 10000 nM
31 | N=C(N)c1cccc(NC(=O)Nc2ccc(S(=O)(=O)NCc3ccccc3)cc2)c1 [Compound 33, 3-[3-(4-Benzylsulfamoyl-phenyl)-ureido]-benzamidine] | < 1000 nM
32 | N=C(N)c1cccc(NC(=O)Nc2ccc(S(=O)(=O)NNC(=O)c3ccc(-c4ccccc4)cc3)cc2)c1 [Compound 60] | 1000 to 10000 nM

Other lines, results leading:

Row | IC50 | SMILES
33 | 1000 to 10000 nM | N=C(N)c1cccc(NC(=O)Nc2ccc(S(=O)(=O)NCc3cc(F)c(F)cc3F)cc2)c1 [Compound 41]
34 | < 1000 nM | N=C(N)c1cccc(NC(=S)Nc2ccc(S(=O)(=O)NCc3cccc(F)c3)cc2)c1 [Compound 75]
35 | 1000 to 10000 nM | COC(=O)c1cc(NC(=O)Nc2cccc(C(=N)NCCN(C)C)c2)cc(C(F)(F)F)c1 [Compound 87]
36 | 1000 to 10000 nM | N=C(N)c1cccc(NC(=O)Nc2ccc(C(F)(F)F)cc2Br)c1 [Compound 11]
37 | 1000 to 10000 nM | N=C(N)c1cccc(NC(=O)Nc2ccc(S(=O)(=O)NCc3cc(F)cc(C(F)(F)F)c3)cc2)c1 [Compound 46]
38 | < 1000 nM | N=C(N)c1cccc(NC(=O)Nc2ccc(S(=O)(=O)NCc3cccc(F)c3)cc2)c1 [Compound 36]
39 | 1000 to 10000 nM | N=C(N)c1cccc(NC(=O)Nc2ccc(NS(=O)(=O)c3ccccc3)c(O)c2)c1 [Compound 31]
40 | < 1000 nM | N=C(Nc1cccnc1)c1cccc(NC(=O)Nc2ccc(S(=O)(=O)c3ccc([N+](=O)[O-])cc3)cc2)c1 [Compound 82]
41 | < 1000 nM | N=C(N)c1cccc(NC(=O)Nc2ccc(Cl)c(C(F)(F)F)c2)c1 [Compound 9]
42 | < 1000 nM | N=C(N)c1cccc(NC(=O)Nc2ccc(S(=O)(=O)NCc3ccc(C(F)(F)F)cc3)cc2)c1 [Compound 38]
43 | 1000 to 10000 nM | N#Cc1ccccc1NC(=O)Nc1cccc(C(=N)N)c1 [Compound 4]
44 | 1000 to 10000 nM | N=C(Nc1cccnc1)c1cccc(NC(=O)Nc2ccc(S(=O)(=O)NCc3ccc(S(N)(=O)=O)cc3)cc2)c1 [Compound 89]
45 | < 1000 nM | N=C(N)c1ccc(NC(=O)Nc2ccc(S(=O)(=O)NCc3cccc(F)c3)cc2)cc1 [Compound 52]
46 | < 1000 nM | N=C(N)c1cccc(NC(=O)Nc2ccc(S(=O)(=O)NCc3ccc(F)cc3)cc2)c1 [Compound 39]
47 | < 1000 nM | N=C(N)c1cccc(NC(=S)Nc2ccc3c(c2)S(=O)(=O)C=C3)c1 [Compound 76]
48 | 1000 to 10000 nM | N=C(N)c1cccc(NC(=O)Nc2ccc(Br)cc2Br)c1 [Compound 14]
49 | 1000 to 10000 nM | N=C(N)c1cccc(NC(=O)Nc2ccc(S(N)(=O)=O)cc2)c1 [Compound 30]
50 | 1000 to 10000 nM | N=C(NCC1CCCO1)c1cccc(NC(=O)Nc2ccc(S(=O)(=O)c3ccc([N+](=O)[O-])cc3)cc2)c1 (centres unmarked) [Compound 84]

Row | IC50 | SMILES
51 | 1000 to 10000 nM | N=C(Nc1ccc(-c2ccccc2)cc1)c1cccc(NC(=O)Nc2cccc(C(F)(F)F)c2)c1 [Compound 100]
52 | 1000 to 10000 nM | CSc1ccc(NC(=O)Nc2cccc(C(=N)N)c2)cc1 [Compound 7]
53 | 1000 to 10000 nM | N=C(N)c1cccc(NC(=O)Nc2cccc(C(=O)NC(c3ccccc3)c3ccccc3)c2)c1 [Compound 72]
54 | < 1000 nM | N=C(N)c1cccc(NC(=S)Nc2ccc(S(=O)(=O)NCc3cccc(C(F)(F)F)c3)cc2)c1 [Compound 78]
55 | < 1000 nM | N=C(NO)c1cccc(NC(=O)Nc2ccc(S(=O)(=O)c3ccc([N+](=O)[O-])cc3)cc2)c1 [Compound 85]
56 | 1000 to 10000 nM | COC(=O)c1cc(NC(=O)Nc2cccc(C(=N)Nc3cccnc3)c2)cc(C(F)(F)F)c1 [Compound 86]
57 | 1000 to 10000 nM | COC(=O)c1cc(NC(=O)Nc2cccc(C(=N)N)c2)cc(C(F)(F)F)c1 [Compound 12]
58 | 1000 to 10000 nM | COC(=O)c1cc(NC(=O)Nc2ccc(C(=N)N)cc2)cc(C(F)(F)F)c1 [Compound 16]
59 | 10000 to 100000 nM | N=C(N)c1cccc(NC(=O)Nc2ccc(S(=O)(=O)NC3C4CC5CC(C4)CC3C5)cc2)c1 (centres unmarked) [Compound 22]
60 | 1000 to 10000 nM | N=C(N)c1cccc(NC(=O)Nc2cccc(S(=O)(=O)NCc3ccc(S(N)(=O)=O)cc3)c2)c1 [Compound 58]
61 | 1000 to 10000 nM | COc1ccccc1C(=O)Nc1cccc(NC(=O)Nc2cccc(C(=N)N)c2)c1 [Compound 68]
62 | 1000 to 10000 nM | N=C(N)c1cccc(NC(=O)Nc2cccc(S(=O)(=O)NCc3cccc(F)c3)c2)c1 [Compound 57]
63 | < 1000 nM | N=C(N)c1cccc(NC(=O)Nc2ccc(S(=O)(=O)c3ccc([N+](=O)[O-])cc3)cc2)c1 [Compound 63, 3-{3-[4-(4-nitrobenzenesulfonyl)-phenyl]-ureido}-benzamidine]
64 | 1000 to 10000 nM | N=C(N)c1ccc(NC(=O)Nc2cccc(C(F)(F)F)c2)cc1 [Compound 2]
65 | 1000 to 10000 nM | CSc1ccc(NC(=O)Nc2cccc(C(=N)NN)c2)cc1 [Compound 1]
66 | 10000 to 100000 nM | CS(=O)(=O)c1ccc2nc(NC(=O)Nc3cccc(C(=N)N)c3)sc2c1 [Compound 6]
67 | 1000 to 10000 nM | N=C(NCCN1CCOCC1)c1cccc(NC(=O)Nc2cccc(C(F)(F)F)c2)c1 [Compound 93]
68 | < 1000 nM | COC(=O)c1cc(NC(=S)Nc2cccc(C(=N)N)c2)cc(C(F)(F)F)c1 [Compound 79]
